Our source for the IC50 values is patent publication US7632840B2, “Quinazoline compounds for the treatment of hyperproliferative disorders” (AstraZeneca AB, priority 2004, dated 2009).

In one assay the test system is KB cells. The experiment in a line: EGFR driven KB cell proliferation assay, Test (b). The class given is cell-based. The conditions noted are these: Homo sapiens. Here is the method: Following adhesion to the plate, the cells are treated with or without EGF (final concentration of 1 ng/ml) and with or without compound at a range of concentrations in dimethylsulfoxide (DMSO) (0.1% final) before incubation for 4 days. […] MTT solution was then tipped off, the plate gently tapped dry and the cells dissolved upon the addition of 100 μl of DMSO.
Absorbance of the solubilised cells was read at 540 nm using a Molecular Devices ThermoMax microplate reader. Inhibition of proliferation was expressed as an IC50 value. […] The range of proliferation was calculated from the positive (vehicle plus EGF) and negative (vehicle minus EGF) control values.

The next assay has as its target T1, EGFR tyrosine kinase (Homo sapiens, UniProt P00533).
T1 construct: Recombinant intracellular fragments of EGFR, erbB2 and erbB4; made in house; host or cells: baculovirus/Sf21 insect cells (cleared lysate used)
The experiment in a line: Protein tyrosine kinase phosphorylation assay, Test (a). The format is biochemical. The conditions noted are these: read-out: 1C50 (nM) Test (a) (Inhibition of EGFR tyrosine kinase protein phosphorylation). The procedure: Recombinant intracellular fragments of EGFR, erbB2 and erbB4 (accession numbers X00588, X03363 and L07868 respectively) were cloned and expressed in the baculovirus/Sf21 system. Lysates were prepared from these cells by treatment with ice-cold lysis buffer (20 mM N-2-hydroxyethylpiperizine-N′-2-ethanesulfonic acid (HEPES) pH7.5, 150 mM NaCl, 10% glycerol, 1% Triton X-100, 1.5 mM MgCl2, 1 mM ethylene glycol-bis(β-aminoethyl ether) N′,N′,N′,N′-tetraacetic acid (EGTA), plus protease inhibitors and then cleared by centrifugation.
Constitutive kinase activity of these recombinant proteins was determined by their ability to phosphorylate a synthetic peptide (made up of a random co-polymer of Glutamic Acid, Alanine and Tyrosine in the ratio of 6:3:1). […]
The immobilised phospho-peptide product of the reaction was detected by immunological methods. […] After further washing, HRP activity in each well of the plate was measured colorimetrically using 22′-Azino-di-[3-ethylbenzthiazoline sulfonate (6)] diammonium salt crystals (ABTS™ from Roche) as a substrate.
Kinase inhibition for a given compound was expressed as an IC50 value. […] The range of phosphorylation was calculated from the positive (vehicle plus ATP) and negative (vehicle minus ATP) control values.

T1 sequence (P00533 669-1210 limits assumed): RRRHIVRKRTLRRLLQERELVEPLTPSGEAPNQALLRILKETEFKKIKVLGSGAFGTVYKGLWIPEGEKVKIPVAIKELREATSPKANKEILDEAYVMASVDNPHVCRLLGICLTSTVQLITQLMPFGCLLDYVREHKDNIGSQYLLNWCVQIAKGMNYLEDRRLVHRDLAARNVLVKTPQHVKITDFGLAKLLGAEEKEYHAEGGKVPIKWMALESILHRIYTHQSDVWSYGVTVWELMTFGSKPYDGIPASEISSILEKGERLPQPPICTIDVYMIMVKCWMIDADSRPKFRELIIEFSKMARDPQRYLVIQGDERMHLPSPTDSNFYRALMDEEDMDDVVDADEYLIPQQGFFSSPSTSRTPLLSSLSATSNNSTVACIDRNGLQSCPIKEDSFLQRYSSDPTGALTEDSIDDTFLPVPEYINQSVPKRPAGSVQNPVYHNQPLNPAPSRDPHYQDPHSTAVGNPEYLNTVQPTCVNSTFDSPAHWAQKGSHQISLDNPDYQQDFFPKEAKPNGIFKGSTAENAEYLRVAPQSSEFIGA

`COc1cc2ncnc(Nc3cccc(Cl)c3F)c2cc1CN(C)C1(C(N)=O)CCN(S(C)(=O)=O)CC1` [Example 66, 4-[({4-[(3-chloro-2-fluorophenyl)amino]-7-methoxyquinazolin-6-yl}methyl)(methyl)amino]-1-(methylsulfonyl)piperidine-4-carboxamide]: in the assay on KB cells, the IC50 amounted to 91 nM.

With `CNC(=O)C1(N(C)Cc2cc3c(Nc4cccc(Cl)c4F)ncnc3cc2OC)CCN(C)CC1` [Example 20, 4-[({4-[(3-chloro-2-fluorophenyl)amino]-7-methoxyquinazolin-6-yl}methyl)(methyl)amino]-N,1-dimethylpiperidine-4-carboxamide], the IC50 in the assay on KB cells came out at 36 nM; on EGFR tyrosine kinase, 17 nM.
